Results: ChEMBL document CHEMBL1201862, “PubChem BioAssay data set” (2004)
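How tested: cells in 96-well plates exposed to compound for 48 hours at five concentrations. At the GI50, growth is halved.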 The source made the active and inactive calls. Cut-off read from the data, not from the text of the source: active = GI50 up to about 1.1 µM and inactive = higher.

Legend:
Assay in all cases: inhibition of tumour cell growth, NCI panel, 48 h
DLD-1 = system: DLD-1
SNB-75 = system: SNB-75
SK-MEL-28 = system: SK-MEL-28
HOP-18 = system: HOP-18
SF-268 = system: SF-268
UO-31 = system: UO-31
UACC-257 = system: UACC-257
HL-60 = system: HL-60
NCI-H460 = system: NCI-H460
SN12C = system: SN12C
HOP-62 = system: HOP-62
RXF 393 = system: RXF 393
U-251 = system: U-251
HT-29 = system: HT-29
DMS-114 = system: DMS-114
OVCAR-3 = system: OVCAR-3
SF-539 = system: SF-539
KM12 = system: KM12
LXFL 529 = system: LXFL 529
SR = system: SR
HOP-92 = system: HOP-92
K562 = system: K562
M14 = system: M14
TK-10 = system: TK-10
NCI-H522 = system: NCI-H522
A498 = system: A498
DMS-273 = system: DMS-273
HCT-116 = system: HCT-116
ACHN = system: ACHN
KM-20L2 = system: KM-20L2
A549 = system: A549
OVCAR-8 = system: OVCAR-8
RPMI-8226 = system: RPMI-8226
SF-295 = system: SF-295
NCI-H226 = system: NCI-H226
OVCAR-4 = system: OVCAR-4
LOX IMVI = system: LOX IMVI
NCI-H23 = system: NCI-H23
Malme-3M = system: Malme-3M
UACC-62 = system: UACC-62
OVCAR-5 = system: OVCAR-5
CCRF-CEM = system: CCRF-CEM
SNB-19 = system: SNB-19
SK-MEL-2 = system: SK-MEL-2
XF498 = system: XF498
COLO 205 = system: COLO 205
HCT-15 = system: HCT-15
SK-MEL-5 = system: SK-MEL-5
CAKI-1 = system: CAKI-1
SK-OV-3 = system: SK-OV-3
IGROV-1 = system: IGROV-1
EKVX = system: EKVX
M19-MEL = system: M19-MEL
SW-620 = system: SW-620
HCC 2998 = system: HCC 2998
MOLT-4 = system: MOLT-4
SNB-78 = system: SNB-78
786-0 = system: 786-0
RXF 631 = system: RXF 631

## COC(=O)C(=O)C(C(=O)Nc1cccc(C)c1C)C1Sc2ccccc2NC1=O (stereo not drawn)
DLD-1
  GI50: 11.2 µM (inactive)
SNB-75
  GI50: 9.84 µM (inactive)
SK-MEL-28
  GI50: 14.6 µM (inactive)
HOP-18
  GI50: > 25 µM (inactive)
SF-268
  GI50: 17.6 µM (inactive)
UO-31
  GI50: > 25 µM (inactive)
UACC-257
  GI50: 16.4 µM (inactive)
HL-60
  GI50: 4.89 µM (inactive)
NCI-H460
  GI50: 13.4 µM (inactive)
SN12C
  GI50: > 25 µM (inactive)
HOP-62
  GI50: 19.6 µM (inactive)
RXF 393
  GI50: 7.55 µM (inactive)
U-251
  GI50: 12.3 µM (inactive)
HT-29
  GI50: 7.8 µM (inactive)
DMS-114
  GI50: 5.83 µM (inactive)
OVCAR-3
  GI50: 20 µM (inactive)
SF-539
  GI50: 12 µM (inactive)
KM12
  GI50: 7.69 µM (inactive)
LXFL 529
  GI50: > 25 µM (inactive)
SR
  GI50: 13.7 µM (inactive)
HOP-92
  GI50: 10.4 µM (inactive)
K562
  GI50: 9.79 µM (inactive)
M14
  GI50: 8.55 µM (inactive)
TK-10
  GI50: > 25 µM (inactive)
NCI-H522
  GI50: 15.8 µM (inactive)
A498
  GI50: 11.5 µM (inactive)
DMS-273
  GI50: 11.8 µM (inactive)
HCT-116
  GI50: 8.22 µM (inactive)
ACHN
  GI50: > 25 µM (inactive)
KM-20L2
  GI50: 8.67 µM (inactive)
A549
  GI50: 10.9 µM (inactive)
OVCAR-8
  GI50: 19.5 µM (inactive)
RPMI-8226
  GI50: 9.48 µM (inactive)
SF-295
  GI50: 12.1 µM (inactive)
NCI-H226
  GI50: 16.7 µM (inactive)
OVCAR-4
  GI50: > 25 µM (inactive)
LOX IMVI
  GI50: 13.9 µM (inactive)
NCI-H23
  GI50: > 25 µM (inactive)
Malme-3M
  GI50: 6.37 µM (inactive)
UACC-62
  GI50: 8.09 µM (inactive)
OVCAR-5
  GI50: > 25 µM (inactive)
CCRF-CEM
  GI50: > 25 µM (inactive)
SNB-19
  GI50: 21.9 µM (inactive)
SK-MEL-2
  GI50: 5.75 µM (inactive)
XF498
  GI50: > 25 µM (inactive)
COLO 205
  GI50: 8.97 µM (inactive)
HCT-15
  GI50: 11.4 µM
SK-MEL-5
  GI50: 8.11 µM (inactive)
CAKI-1
  GI50: > 25 µM (inactive)
SK-OV-3
  GI50: > 25 µM (inactive)
IGROV-1
  GI50: 16.8 µM (inactive)
EKVX
  GI50: > 25 µM (inactive)
M19-MEL
  GI50: 14.6 µM (inactive)
SW-620
  GI50: 8.55 µM (inactive)
HCC 2998
  GI50: 15.6 µM (inactive)
MOLT-4
  GI50: > 25 µM (inactive)
SNB-78
  GI50: 21.2 µM (inactive)

## COC(=O)c1cccn1C(=O)n1cccc1
DLD-1
  GI50: > 100 µM (inactive)
SNB-75
  GI50: 62.1 µM (inactive)
SK-MEL-28
  GI50: > 100 µM (inactive)
HOP-18
  GI50: > 100 µM (inactive)
SF-268
  GI50: > 100 µM (inactive)
UO-31
  GI50: > 100 µM (inactive)
UACC-257
  GI50: > 100 µM (inactive)
HL-60
  GI50: > 100 µM (inactive)
NCI-H460
  GI50: > 100 µM (inactive)
SN12C
  GI50: > 100 µM (inactive)
HOP-62
  GI50: > 100 µM (inactive)
RXF 393
  GI50: > 100 µM (inactive)
U-251
  GI50: > 100 µM (inactive)
HT-29
  GI50: > 100 µM (inactive)
DMS-114
  GI50: > 100 µM (inactive)
OVCAR-3
  GI50: > 100 µM (inactive)
SF-539
  GI50: > 100 µM (inactive)
KM12
  GI50: > 100 µM (inactive)
LXFL 529
  GI50: > 100 µM (inactive)
SR
  GI50: > 100 µM (inactive)
HOP-92
  GI50: > 100 µM (inactive)
K562
  GI50: > 100 µM (inactive)
M14
  GI50: > 100 µM (inactive)
TK-10
  GI50: > 100 µM (inactive)
NCI-H522
  GI50: > 100 µM (inactive)
A498
  GI50: > 100 µM (inactive)
DMS-273
  GI50: > 100 µM (inactive)
HCT-116
  GI50: > 100 µM (inactive)
ACHN
  GI50: > 100 µM (inactive)
KM-20L2
  GI50: > 100 µM (inactive)
A549
  GI50: > 100 µM (inactive)
OVCAR-8
  GI50: > 100 µM (inactive)
SF-295
  GI50: > 100 µM (inactive)
NCI-H226
  GI50: > 100 µM (inactive)
OVCAR-4
  GI50: > 100 µM (inactive)
LOX IMVI
  GI50: > 100 µM (inactive)
NCI-H23
  GI50: > 100 µM (inactive)
Malme-3M
  GI50: > 100 µM (inactive)
UACC-62
  GI50: > 100 µM (inactive)
OVCAR-5
  GI50: > 100 µM (inactive)
CCRF-CEM
  GI50: > 100 µM (inactive)
SNB-19
  GI50: > 100 µM (inactive)
SK-MEL-2
  GI50: > 100 µM (inactive)
XF498
  GI50: > 100 µM (inactive)
COLO 205
  GI50: > 100 µM (inactive)
SK-MEL-5
  GI50: > 100 µM (inactive)
CAKI-1
  GI50: > 100 µM (inactive)
SK-OV-3
  GI50: > 100 µM (inactive)
IGROV-1
  GI50: > 100 µM (inactive)
EKVX
  GI50: > 100 µM (inactive)
M19-MEL
  GI50: > 100 µM (inactive)
786-0
  GI50: > 100 µM (inactive)
SW-620
  GI50: > 100 µM (inactive)
HCC 2998
  GI50: > 100 µM (inactive)
MOLT-4
  GI50: > 100 µM (inactive)
SNB-78
  GI50: > 100 µM (inactive)

## CCOC(=O)c1nc2ccc(OC)cc2c2c1Cc1ccccc1-2
DLD-1
  GI50: > 100 µM (inactive)
SNB-75
  GI50: 81.5 µM (inactive)
SK-MEL-28
  GI50: > 100 µM (inactive)
SF-268
  GI50: > 100 µM (inactive)
UO-31
  GI50: > 100 µM (inactive)
UACC-257
  GI50: > 100 µM (inactive)
NCI-H460
  GI50: > 100 µM (inactive)
SN12C
  GI50: > 100 µM (inactive)
HOP-62
  GI50: > 100 µM (inactive)
RXF 631
  GI50: 61.7 µM (inactive)
RXF 393
  GI50: 16.2 µM (inactive)
U-251
  GI50: > 100 µM (inactive)
HT-29
  GI50: > 100 µM (inactive)
DMS-114
  GI50: 23.9 µM (inactive)
OVCAR-3
  GI50: > 100 µM (inactive)
SF-539
  GI50: 84.9 µM (inactive)
KM12
  GI50: > 100 µM (inactive)
LXFL 529
  GI50: > 100 µM (inactive)
SR
  GI50: > 100 µM (inactive)
K562
  GI50: > 100 µM (inactive)
M14
  GI50: > 100 µM (inactive)
TK-10
  GI50: > 100 µM (inactive)
NCI-H522
  GI50: 56.5 µM (inactive)
DMS-273
  GI50: > 100 µM (inactive)
HCT-116
  GI50: 8.95 µM (inactive)
ACHN
  GI50: > 100 µM (inactive)
KM-20L2
  GI50: > 100 µM (inactive)
A549
  GI50: > 100 µM (inactive)
OVCAR-8
  GI50: > 100 µM (inactive)
RPMI-8226
  GI50: > 100 µM (inactive)
SF-295
  GI50: > 100 µM (inactive)
NCI-H226
  GI50: > 100 µM (inactive)
OVCAR-4
  GI50: 49.8 µM (inactive)
LOX IMVI
  GI50: > 100 µM (inactive)
NCI-H23
  GI50: > 100 µM (inactive)
Malme-3M
  GI50: > 100 µM (inactive)
UACC-62
  GI50: 90.2 µM (inactive)
OVCAR-5
  GI50: > 100 µM (inactive)
SNB-19
  GI50: > 100 µM (inactive)
SK-MEL-2
  GI50: > 100 µM (inactive)
COLO 205
  GI50: > 100 µM (inactive)
HCT-15
  GI50: > 100 µM
SK-MEL-5
  GI50: 42.8 µM (inactive)
CAKI-1
  GI50: > 100 µM (inactive)
IGROV-1
  GI50: > 100 µM (inactive)
M19-MEL
  GI50: > 100 µM (inactive)
SW-620
  GI50: > 100 µM (inactive)
HCC 2998
  GI50: 87.1 µM (inactive)
MOLT-4
  GI50: > 100 µM (inactive)
SNB-78
  GI50: > 100 µM (inactive)
